Source: PubChem BioAssay AID2060891 (Molecular Pharmacology Branch, DTP, NCI, 2025)

Tested on: K98450-129-R-PDC complex spheroid growth, percent test/control
Experiment: Anticancer human tumor K98450-129-R-PDC patient-derived colon adenocarcinoma cell line growth inhibition [RAS]
Details: for IC50: curve of first compound; for viability, T/C: stronger effect = lower value
In short: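 Tumour cells grown as complex spheroids with HUVEC endothelial cells and mesenchymal stem cells, treated with RAS pathway inhibitor combinations. Each agent spans half-log steps from near clinical Cmax, or 10 microM where Cmax is unknown.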
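Note: spheroids exposed to agents for seven days before the viability readout.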
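Throughout, for viability, T/C: luminescence used as a proxy for viable cell amount.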

With `CC(C)NCC(C(=O)N1CCN(c2ncnc3c2C(C)CC3O)CC1)c1ccc(Cl)cc1` (configuration not stated) + CCn1c(-c2cc(N3CCN(C)CC3)cnc2C(C)OC)c2c3cc(ccc31)-c1csc(n1)CC(NC(=O)C1CC1C)C(=O)N1CCCC(N1)C(=O)OCC(C)(C)C2 the IC50 (second compound 0.000949 µM) was > 10 µM, the IC50 (second compound 0.003 µM) was > 10 µM and the IC50 (second compound 0.00949 µM) was > 10 µM. For the same molecule, the IC50 (second compound 0.03 µM) was < 0.0316 µM, the IC50 (second compound 0.0949 µM) was < 0.0316 µM and the IC50 (second compound 0.3 µM) was < 0.0316 µM. For the same molecule, the viability, T/C (second compound 0.000949 µM, first compound 0.0316 µM) was 104%, the viability, T/C (second compound 0.000949 µM, first compound 0.1 µM) was 93.3% and the viability, T/C (second compound 0.000949 µM, first compound 0.316 µM) was 89.9%. It also gave a viability, T/C (second compound 0.000949 µM, first compound 1 µM) of 73.3%, a viability, T/C (second compound 0.000949 µM, first compound 3.16 µM) of 100% and a viability, T/C (second compound 0.000949 µM, first compound 10 µM) of 89.9%. The viability, T/C (second compound 0.003 µM, first compound 0.0316 µM) was 90.7%, the viability, T/C (second compound 0.003 µM, first compound 0.1 µM) was 80.8% and the viability, T/C (second compound 0.003 µM, first compound 0.316 µM) was 87.1%. It also gave a viability, T/C (second compound 0.003 µM, first compound 1 µM) of 76.5%, a viability, T/C (second compound 0.003 µM, first compound 3.16 µM) of 75.3% and a viability, T/C (second compound 0.003 µM, first compound 10 µM) of 79.7%. It also gave a viability, T/C (second compound 0.00949 µM, first compound 0.0316 µM) of 66.7%, a viability, T/C (second compound 0.00949 µM, first compound 0.1 µM) of 67% and a viability, T/C (second compound 0.00949 µM, first compound 0.316 µM) of 70%. It also gave a viability, T/C (second compound 0.00949 µM, first compound 1 µM) of 74.5%, a viability, T/C (second compound 0.00949 µM, first compound 3.16 µM) of 77.4% and a viability, T/C (second compound 0.00949 µM, first compound 10 µM) of 67.5%. The viability, T/C (second compound 0.03 µM, first compound 0.0316 µM) was 48.7%, the viability, T/C (second compound 0.03 µM, first compound 0.1 µM) was 44.8% and the viability, T/C (second compound 0.03 µM, first compound 0.316 µM) was 52.7%. It also gave a viability, T/C (second compound 0.03 µM, first compound 1 µM) of 47.7%, a viability, T/C (second compound 0.03 µM, first compound 3.16 µM) of 54.7% and a viability, T/C (second compound 0.03 µM, first compound 10 µM) of 46.9%. The viability, T/C (second compound 0.0949 µM, first compound 0.0316 µM) was 19%, the viability, T/C (second compound 0.0949 µM, first compound 0.1 µM) was 24.3% and the viability, T/C (second compound 0.0949 µM, first compound 0.316 µM) was 17.6%. It also gave a viability, T/C (second compound 0.0949 µM, first compound 1 µM) of 17.8%, a viability, T/C (second compound 0.0949 µM, first compound 3.16 µM) of 16.2% and a viability, T/C (second compound 0.0949 µM, first compound 10 µM) of 11.2%. The viability, T/C (second compound 0.3 µM, first compound 0.0316 µM) was 11.1%, the viability, T/C (second compound 0.3 µM, first compound 0.1 µM) was 12.6% and the viability, T/C (second compound 0.3 µM, first compound 0.316 µM) was 12.5%. It also gave a viability, T/C (second compound 0.3 µM, first compound 1 µM) of 10.1%, a viability, T/C (second compound 0.3 µM, first compound 3.16 µM) of 9.61% and a viability, T/C (second compound 0.3 µM, first compound 10 µM) of 7.13%.
